In patent US10906940B2, “Antimicrobial peptides, pharmaceutical compositions, and methods of use thereof” (priority 2014, dated 2021):
≈ marks a conversion by molar mass, not a printed value. Where a SMILES comes first, the peptide text is derived from it. Bridges are numbered along the chain shown (N, C = ends). [ ]: non-standard residue; d: D form. The star is where a group is joined. Tridecanoyl = CCCCCCCCCCCCC(=O)*; dOrn = NCCC[C@@H](N)C(=O)O

Columns and labels:
[1] = test system: E. coli CVM 40133 (ctx-m-14); assay type: cell-based, Escherichia coli
From the text: (§1) The same MIC assay as in Example 6 was used to determine the antimicrobial susceptibility of Compound A, L-form (FIG. 15), and several variants. One variant was Compound A, D-form, with D-Lysine at position 7. Compound B is a variant in the fatty acid chain, with a fatty acid chain composition of C15H29O, and having D-Lys at position 7. Compound C is a variant in the fatty acid chain with a fatty acid chain composition of C11H21O, and having D-Lys at position 7. Variant D is a sequence variant with Phe at position 6 of the cyclic peptide, and having D-Lys at position 7. All variants were chemically synthesized.

E. coli CVM40146 (vim-1) = assay type: cell-based, Escherichia coli
From the text: as §1

[2] = test system: E. coli CVM 40132 (ctx-m-9); assay type: cell-based, Escherichia coli
From the text: as §1

[3] = test system: E. coli CVM 40131 (ctx-m-2); assay type: cell-based, Escherichia coli
From the text: as §1

[4] = test system: E. coli CVM 40147 (vim-2); assay type: cell-based, Escherichia coli
From the text: as §1

[5] = test system: E. coli CVM 40138 (LCR-1); assay type: cell-based, Escherichia coli
From the text: as §1

[6] = test system: E. coli CVM 40139 (fox-1); assay type: cell-based, Escherichia coli
From the text: as §1

[7] = test system: E. coli CVM 40130 (oxa-9); assay type: cell-based, Escherichia coli
From the text: as §1

E. coli CVM 15103 (tem2) = assay type: cell-based, Escherichia coli
From the text: as §1

[8] = test system: E. coli CVM 40137 (DHA-1); assay type: cell-based, Escherichia coli
From the text: as §1

[9] = test system: E. coli CVM 40129 (oxa-5); assay type: cell-based, Escherichia coli
From the text: as §1

[10] = test system: E. coli CVM 40128 (oxa-7); assay type: cell-based, Escherichia coli
From the text: as §1

[11] = test system: E. coli CVM 40126 (oxa-1); assay type: cell-based, Escherichia coli
From the text: as §1

[12] = test system: E. coli CVM 40136 (tem 52b); assay type: cell-based, Escherichia coli
From the text: as §1

[13] = test system: E. coli CVM 40143 (act-1); assay type: cell-based, Escherichia coli
From the text: as §1

E. coli CVM 15104 (shv3) = assay type: cell-based, Escherichia coli
From the text: as §1

E. coli CVM40148 (veb-1) = assay type: cell-based, Escherichia coli
From the text: as §1

[14] = test system: E. coli CVM 40134 (ctx-m-15); assay type: cell-based, Escherichia coli
From the text: as §1

[15] = test system: E. coli CVM 35778 (ctx-m-2); assay type: cell-based, Escherichia coli
From the text: as §1

[16] = test system: E. coli CVM 40141 (imp-1); assay type: cell-based, Escherichia coli
From the text: as §1

E. coli CVM 15100 (mir1) = assay type: cell-based, Escherichia coli
From the text: as §1

[17] = test system: E. coli CVM 40127 (oxa-2); assay type: cell-based, Escherichia coli
From the text: as §1

S. aureus 12 = experiment: microbe, parasite or virus in culture; assay type: cell-based, Staphylococcus aureus; settings: 12
S. aureus 10 = experiment: microbe, parasite or virus in culture; assay type: cell-based, Staphylococcus aureus; settings: 10
S. aureus 8 = experiment: microbe, parasite or virus in culture; assay type: cell-based, Staphylococcus aureus; settings: 8
S. aureus 6 = experiment: microbe, parasite or virus in culture; assay type: cell-based, Staphylococcus aureus; settings: 6
S. aureus 2 = experiment: microbe, parasite or virus in culture; assay type: cell-based, Staphylococcus aureus; settings: 2
S. aureus 14 = experiment: microbe, parasite or virus in culture; assay type: cell-based, Staphylococcus aureus; settings: 14
S. aureus 4 = experiment: microbe, parasite or virus in culture; assay type: cell-based, Staphylococcus aureus; settings: 4
S. aureus 19 = experiment: microbe, parasite or virus in culture; assay type: cell-based, Staphylococcus aureus; settings: 19
[18] = test system: Serratia marcescens SBJ-8283; assay type: cell-based; settings: SBJ-8283
[19] = test system: Serratia marcescens SAMN 04276914; assay type: cell-based; settings: SAMN 04276914
[20] = test system: Salmonella CVM 40118 (oxa-1); assay type: cell-based
[21] = test system: Serratia marcescens SBJ-9047; assay type: cell-based; settings: SBJ-9047
[22] = test system: Serratia marcescens SAMN 04276915; assay type: cell-based; settings: SAMN 04276915
[23] = test system: S. Newport CVM 40115 (cmy 2); assay type: cell-based, Salmonella
From the text: as §1

[24] = test system: S. Typhimurium CVM 40117 (ctx-m-5); assay type: cell-based, Salmonella
From the text: as §1

[25] = test system: S. Heidelberg CVM 40140 (cmy-2); assay type: cell-based, Salmonella
From the text: as §1

[26] = test system: S. Keur massar CVM 40135 (shv12); assay type: cell-based, Salmonella
From the text: as §1

[27] = test system: S. Bareilly CVM40145 (ACC-1); assay type: cell-based, Salmonella
From the text: as §1

CCCCCCCCCCCCC(=O)N[C@H](CCCN)C(=O)N[C@H](C(=O)N[C@@H]1C(=O)N[C@H](CCCN)C(=O)N[C@@H](CO)C(=O)N[C@@H](Cc2ccccc2)C(=O)N[C@H](CCCCN)C(=O)N[C@H](CO)C(=O)N[C@@H]([C@@H](C)CC)C(=O)N2CCC[C@H]2C(=O)N[C@@H]([C@@H](C)CC)C(=O)N2CCC[C@H]2C(=O)N[C@@H]([C@@H](C)CC)C(=O)O[C@@H]1C)C(C)C [Variant D] (Tridecanoyl-[dOrn]VT[dOrn]SF[dK][dS]IPIPI; ester 3-C; N-terminus assumed)
MIC [1]: 8 mg/L (≈ 4.97 µM) | MIC (E. coli CVM40146 (vim-1)): 8 mg/L (≈ 4.97 µM) | MIC [2]: 8 mg/L (≈ 4.97 µM) | MIC [3]: 8 mg/L (≈ 4.97 µM) | MIC [4]: 16 mg/L (≈ 9.95 µM) | MIC [5]: 8 mg/L (≈ 4.97 µM) | MIC [6]: 8 mg/L (≈ 4.97 µM) | MIC [7]: 8 mg/L (≈ 4.97 µM) | MIC (E. coli CVM 15103 (tem2)): 8 mg/L (≈ 4.97 µM) | MIC [8]: 8 mg/L (≈ 4.97 µM) | MIC [9]: 8 mg/L (≈ 4.97 µM) | MIC [10]: 8 mg/L (≈ 4.97 µM) | MIC [11]: 8 mg/L (≈ 4.97 µM) | MIC [12]: 16 mg/L (≈ 9.95 µM) | MIC [13]: 16 mg/L (≈ 9.95 µM) | MIC (E. coli CVM 15104 (shv3)): 16 mg/L (≈ 9.95 µM) | MIC (E. coli CVM40148 (veb-1)): 8 mg/L (≈ 4.97 µM) | MIC [14]: 8 mg/L (≈ 4.97 µM) | MIC [15]: 16 mg/L (≈ 9.95 µM) | MIC [16]: 16 mg/L (≈ 9.95 µM) | MIC (E. coli CVM 15100 (mir1)): 8 mg/L (≈ 4.97 µM) | MIC [17]: 8 mg/L (≈ 4.97 µM) | MIC (S. aureus 12): 8 mg/L (≈ 4.97 µM) | MIC (S. aureus 10): 8 mg/L (≈ 4.97 µM) | MIC (S. aureus 8): 8 mg/L (≈ 4.97 µM) | MIC (S. aureus 6): 8 mg/L (≈ 4.97 µM) | MIC (S. aureus 2): 8 mg/L (≈ 4.97 µM) | MIC (S. aureus 14): 8 mg/L (≈ 4.97 µM) | MIC (S. aureus 4): 8 mg/L (≈ 4.97 µM) | MIC (S. aureus 19): 8 mg/L (≈ 4.97 µM) | MIC [18]: 32 mg/L (≈ 19.9 µM) | MIC [19]: 64 mg/L (≈ 39.8 µM) | MIC [20]: 8 mg/L (≈ 4.97 µM) | MIC [21]: ≥128 mg/L | MIC [22]: ≥128 mg/L | MIC [23]: 8 mg/L (≈ 4.97 µM) | MIC [24]: 8 mg/L (≈ 4.97 µM) | MIC [25]: 16 mg/L (≈ 9.95 µM) | MIC [26]: 16 mg/L (≈ 9.95 µM) | MIC [27]: 32 mg/L (≈ 19.9 µM)
